Measured values as given in the OPERA property sets (Mansouri et al. 2018).

Row | logP | SMILES
1 | -0.64 | Cn1c(N)c(NC=O)c(=O)n(C)c1=O
2 | -1.32 | CN(C=O)c1c(N)n(C)c(=O)n(C)c1=O
3 | -1.3 | CN(C=O)c1c(N)n(C)c(=O)[nH]c1=O
4 | -2.03 | CN(C=O)c1c(N)[nH]c(=O)n(C)c1=O
5 | -1.33 | Cn1c(=O)[nH]c(=O)c2c1[nH]c(=O)n2C
6 | -0.57 | Cn1c(=O)[nH]c2[nH]c(=O)[nH]c2c1=O
7 | -1.18 | Cn1c(=O)[nH]c2[nH]c(=O)[nH]c(=O)c21
8 | -0.37 | Cn1c(=O)c2c([nH]c(=O)n2C)n(C)c1=O
9 | -0.22 | Cn1c(=O)[nH]c2[nH]c(=O)n(C)c2c1=O
10 | -0.89 | Cn1cnc2[nH]c(=O)[nH]c(=O)c21
11 | -0.52 | Cn1c(=O)c2[nH]c(=O)[nH]c2n(C)c1=O
12 | -1.08 | Cn1c(=O)[nH]c(=O)c2[nH]c(=O)[nH]c21
13 | -0.27 | Cn1c(=O)[nH]c2nc[nH]c2c1=O

Row | SMILES | logP
14 | Cn1c(=O)[nH]c(=O)c2[nH]cnc21 | -0.5
